Assay results reported in patent US5356928A, “Cytotoxic agents” (Hauser Chemical Research, Inc., priority 1993, dated 1994).
In brackets after ≈: the same amount, converted by molar mass. Entries after “also recorded” stand apart in the source; their conditions may differ. Where two headings read alike, the source gives them in different places.

Assays:
cell = conditions: literature on taxol and taxol analogs (Kingston); cited from earlier work
[1] = tested on: Tubulin free of microtubule-associated proteins; assay: Tubulin Assembly (microtubule assembly; protein concentration of the supernatant); format: biochemical, bovine; conditions: for Tubulin Assembly ED50: concentration which reduces the supernatant protein concentration by 50%, tubulin 1 mg/ml, 37° C., 15 minutes, PEM buffer pH 6.9; for Tubulin Assembly ED50 /ED50 Taxol: relative to control sample of taxol, less than 1 = greater activity than taxol
From the text: This example illustrates the results of biological tests on the compounds of this invention and certain "controls" with respect to tubulin binding and the effect of these compounds on B16 melanoma. The following procedures were employed:
Tubulin Preparation and Assembly. The tubulin testing was done exactly as described by Himes (Georg, G. I., et al., "Synthesis of Biologically Active Taxol Analogs with Modified Phenylisoserine Side Chains", J. Med. Chem. Vol. 35: 4230, (1992)), incorporated herein by reference. Tubulin free of microtubule-associated proteins was purified from bovine brain as described in Algaier, J.; Himes, R. H., "The Effect of Dimethyl Sulfoxide on the Kinetics of Tubulin Assembly" Biochim. Biophys. Acta, Vol 954, pp 235-243, 1988. The assembly reaction was done at 37° C. in PEM buffer ([…], pH 6.9, 1 mM EGTA, and 1 mM MgSO4) at a protein concentration of 1 mg/ml (10 μM) in the presence of taxol or taxol analogs and 0.5 mM GTP. The reaction was monitored by the increase in the apparent absorbance at 350 nm.
Taxol has been included in Table 1 for reference. […] A number less than 1 in these columns indicates greater activity than taxol. A number greater than 1 in these columns indicates lower activity than taxol. These tests have been used and relied upon by researchers in this field to determine the potential efficacy of taxol and/or a taxol analog for the treatment of cancer.
^b Tubulin at 1 mg/ml was incubated with various concentrations of th
compounds at 37° C. for 15 minutes in 0.5 ml of PEM buffer (0.1M
Pipes, 1 mM EGTA, 1 mM MgSO4, pH 6.9). Samples were centrifuged and
the protein concentration on the supernatant was determined.
^d The concentration in μg/ml which reduces the supernatant protei

B16 melanoma cells = assay: B16 Melanoma Cell Proliferation; format: cell-based; conditions: for B16 Proliferation ED50 /ED50 Taxol: relative to control sample of taxol, less than 1 = greater activity than taxol; for IC50: Mus musculus, read-out: B16 Proliferation ED50
Description: The following procedures were employed:
B16 Melanoma Cell Proliferation. Cells were seeded in 24-well plates at 7.5×10^4 cells/well and grown in Delbecco's modified minimal essential medium (MEM) containing 10% bovine calf serum at 37° C. for 24 hours in a 97% humidified atmosphere of 5.5% CO2, the medium was then replaced with fresh medium containing taxol or its derivatives and dissolved in DMSO in concentrations ranging from […] to 1×10^-7 M for taxol and other derivatives. The final concentration of DMSO in the cell medium was 0.5% or less. […] After 40 hours, the cells were released by trypsinization and counted in a Coulter counter.
A number less than 1 in these columns indicates greater activity than taxol. A number greater than 1 in these columns indicates lower activity than taxol.

tubulin = conditions: Taxotere compared with taxol; taxol per Schiff et al.; Kingston review; cited from earlier work
[2] = cited from earlier work
[3] = tested on: macrophage-like J774.2 cells; conditions: mouse macrophage-like J774.2 cells; Taxotere vs taxol; cited from earlier work
[4] = tested on: taxol-resistant tumor cells; conditions: Taxotere vs taxol; cited from earlier work
[5] = tested on: P388 murine leukemia cells; conditions: Taxotere vs taxol; cited from earlier work
[6] = B16, concentration which reduces the number of cells by 50 [%] compared to a control, about 40 h at 37° C., highest concentration used 1000 ng/ml

Row | Structure (SMILES) | Tubulin Assembly ED50 [1] [µg/mL] | Tubulin Assembly ED50 /ED50 Taxol [1] | B16 Proliferation ED50 /ED50 Taxol (B16 melanoma cells) | IC50 (B16 melanoma cells; B16, 40 h) [µg/mL] | also measured
1 | CC(=O)O[C@H]1C(=O)[C@@]2(C)[C@H]([C@H](OC(=O)c3ccccc3)[C@]3(O)C[C@H](OC(=O)[C@H](O)[C@@H](NC(=O)c4ccccc4)c4ccccc4)C(C)=C1C3(C)C)[C@]1(OC(C)=O)CO[C@@H]1C[C@@H]2O [Compound 1, taxol] | 1.08 | 1.26 | 0.95 | – | cytotoxicity / activity, in words (cell): significant cytotoxicity; ED50 for taxol in the assembly assay ([1]; control sample, denominator of ED50/ED50 Taxol, 15 min): 0.854 µg/mL; activity as a promoter of tubulin polymerization / tubulin binding, in words (tubulin): significant tubulin binding activity
2 | CC(=O)O[C@@]12CO[C@@H]1C[C@H](O)[C@@]1(C)C(=O)[C@H](O)C3=C(C)[C@@H](OC(=O)[C@H](O)[C@@H](NC(=O)OC(C)(C)C)c4ccccc4)C[C@@](O)([C@@H](OC(=O)c4ccccc4)[C@H]21)C3(C)C [Compound 2] | – | – | – | – | water solubility, in words [2]: improved water solubility; potency as an inhibitor of replication, times more potent than taxol [3]: 1.5 times; potency in taxol-resistant tumor cells, vs taxol [4]: at least five-fold more potent; potency as an inhibitor of replication, times more potent than taxol [5]: 1.5 times; activity as a promoter of tubulin polymerization / tubulin binding, in words (tubulin): slightly more active as a promoter of tubulin polymerization; also recorded: enhanced in vitro tubulin binding activity
3 | CC(=O)O[C@H]1C(=O)[C@]2(C)[C@@H](O[C@@H]3OC[C@@H](O)[C@H](O)[C@H]3O)C[C@H]3OC[C@@]3(OC(C)=O)[C@H]2[C@H](OC(=O)c2ccccc2)[C@]2(O)C[C@H](OC(=O)[C@H](O)[C@@H](NC(=O)c3ccccc3)c3ccccc3)C(C)=C1C2(C)C [Compound 3, 7-xylosyl taxol] | 0.82 | 0.80 | 40.8 | 0.925 (≈ 0.938 µM) | –
4 | CC(=O)O[C@H]1C(=O)[C@]2(C)[C@@H](O[C@@H]3OCC(O)OC3O)C[C@H]3OC[C@@]3(OC(C)=O)[C@H]2[C@H](OC(=O)c2ccccc2)[C@]2(O)C[C@H](OC(=O)[C@H](O)[C@@H](NC(=O)c3ccccc3)c3ccccc3)C(C)=C1C2(C)C (stereo partly shown) [Compound 4] | 0.48 | 0.57 | 2.2 | – | tubulin binding / in vitro tubulin assembly, in words ([1]; compared to taxol or to precursors): comparable to results for taxol; cytotoxicity, in words (B16 melanoma cells; B16 melanoma, compared to taxol or to precursors): comparable to results for taxol; IC50 (B16 melanoma cells; [6]): 0.05 µg/mL (≈ 0.0514 µM)
5 | CC(=O)O[C@@]12CO[C@@H]1C[C@H](O[C@@H]1OC[C@@H](O)[C@H](O)[C@H]1O)[C@@]1(C)C(=O)[C@H](O)C3=C(C)[C@@H](OC(=O)[C@H](O)[C@@H](NC(=O)c4ccccc4)c4ccccc4)C[C@@](O)([C@@H](OC(=O)c4ccccc4)[C@H]21)C3(C)C [Compound 5, 10-deacetyl-7-xylosyl taxol] | 0.72 | 0.70 | > 44 | > 1 | –
6 | CC(=O)O[C@@]12CO[C@@H]1C[C@H](O[C@@H]1OCC(O)OC1O)[C@@]1(C)C(=O)[C@H](O)C3=C(C)[C@@H](OC(=O)[C@H](O)[C@@H](NC(=O)c4ccccc4)c4ccccc4)C[C@@](O)([C@@H](OC(=O)c4ccccc4)[C@H]21)C3(C)C (stereo partly shown) [Compound 6] | 0.68 | 0.80 | 15.1 | 0.432 (≈ 0.465 µM) | –
7 | C/C=C(\C)C(=O)N[C@@H](c1ccccc1)[C@@H](O)C(=O)O[C@H]1C[C@@]2(O)[C@@H](OC(=O)c3ccccc3)[C@@H]3[C@]4(OC(C)=O)CO[C@@H]4C[C@H](O[C@@H]4OC[C@@H](O)[C@H](O)[C@H]4O)[C@@]3(C)C(=O)[C@H](O)C(=C1C)C2(C)C [Compound 9, 10-deacetyl-7-xylosyl cephalomannine] | 1.10 | 1.10 | 33.3 | 0.755 (≈ 0.819 µM) | –
8 | C/C=C(\C)C(=O)N[C@@H](c1ccccc1)[C@@H](O)C(=O)O[C@H]1C[C@@]2(O)[C@@H](OC(=O)c3ccccc3)[C@@H]3[C@]4(OC(C)=O)CO[C@@H]4C[C@H](O[C@@H]4OCC(O)OC4O)[C@@]3(C)C(=O)[C@H](O)C(=C1C)C2(C)C (stereo partly shown) [Compound 10] | 0.82 | 0.96 | 14.1 | 0.317 (≈ 0.349 µM) | –
9 | CCCCCC(=O)N[C@@H](c1ccccc1)[C@@H](O)C(=O)O[C@H]1C[C@@]2(O)[C@@H](OC(=O)c3ccccc3)[C@@H]3[C@]4(OC(C)=O)CO[C@@H]4C[C@H](O[C@@H]4OC[C@@H](O)[C@H](O)[C@H]4O)[C@@]3(C)C(=O)[C@H](O)C(=C1C)C2(C)C [Compound 13, 10-deacetyl-7-xylosyl taxol C] | 0.58 | 0.60 | > 44 | > 1 | –
10 | CCCCCC(=O)N[C@@H](c1ccccc1)[C@@H](O)C(=O)O[C@H]1C[C@@]2(O)[C@@H](OC(=O)c3ccccc3)[C@@H]3[C@]4(OC(C)=O)CO[C@@H]4C[C@H](O[C@@H]4OCC(O)OC4O)[C@@]3(C)C(=O)[C@H](O)C(=C1C)C2(C)C (stereo partly shown) [Compound 14] | 1.45 | 1.70 | 8.28 | – | IC50 (B16 melanoma cells; [6]): 0.186 µg/mL (≈ 0.201 µM)
11 | CC(=O)O[C@@]12CO[C@@H]1C[C@H](O[C@@H](CO)OCCO)[C@@]1(C)C(=O)[C@H](O)C3=C(C)[C@@H](OC(=O)[C@H](O)[C@@H](NC(=O)c4ccccc4)c4ccccc4)C[C@@](O)([C@@H](OC(=O)c4ccccc4)[C@H]21)C3(C)C [Compound 15] | 1.42 | 1.66 | 14.6 | – | IC50 (B16 melanoma cells; [6]): 0.328 µg/mL (≈ 0.358 µM)
